# Measurements reported in patent publication US6399626B1, “Hydroxyesters of 7-desmethylrapamycin” (Wyeth, priority 2000, dated 2002).
# Assays:
# Format in all cases: cell-based
# Aspergillus fumigatus = assay: Antifungal MIC, microtiter broth dilution; settings: Aspergillus fumigatus strain ATCC 26933; 35° C., 24-48 hours
# Method: (§1) The antifungal activity for the hydroxyesters of 7-desmethylrapamycin of this invention was confirmed in a standard pharmacological test procedure which measured the ability of the compound being evaluated to inhibit fungal growth. 7-Desmethylrapamycin 42-ester with 3-hydroxy-2-(hydroxymethyl)-2-methylpropionic acid (Compound I) was evaluated as a representative compound of this invention. The procedure used and results obtained are briefly described below. A 96 U-bottom microtiter plate was filled (50 μl/well) with RPMI 1640. The compounds to be evaluated were placed in appropriate wells, and serial diluted in successive wells to provide 11 dilutions. The concentrations ranged from 64 through 0.06 μg/ml. An adjusted inoculum of fungi (50 μl) was added to each well and the plates were incubated at 35° C. for 24-48 hours. […] Nystatin and amphotericin B were used for the purpose of comparison.
# Candida lusitaniae = assay: Antifungal MIC, microtiter broth dilution; settings: Candida lusitaniae strain 94-3; 35° C., 24-48 hours
# Method: as §1
# Candida tropicalis = assay: Antifungal MIC, microtiter broth dilution; settings: 35° C., 24-48 hours
# Method: as §1
# Candida albicans = assay: Antifungal MIC, microtiter broth dilution; settings: 35° C., 24-48 hours
# Method: as §1
# Candida rugosa = assay: Antifungal MIC, microtiter broth dilution; settings: Candida rugosa strain 94-10; 35° C., 24-48 hours
# Method: as §1
# Candida krussii = assay: Antifungal MIC, microtiter broth dilution; settings: Candida krussii strain 94-2; 35° C., 24-48 hours
# Method: as §1
# Candida parapsilosis = assay: Antifungal MIC, microtiter broth dilution; settings: 35° C., 24-48 hours
# Method: as §1
# Candida pseudotropicalis = assay: Antifungal MIC, microtiter broth dilution; settings: Candida pseudotropicalis strain ATCC 28838; 35° C., 24-48 hours
# Method: as §1
# Aspergillus niger = assay: Antifungal MIC, microtiter broth dilution; settings: 35° C., 24-48 hours
# Method: as §1
# [1] = system: U87MG human glioblastoma cells; assay: Inhibition of U87MG human glioblastoma cell growth (3H-thymidine incorporation); settings: 48 hours incubation
# Method: The antineoplastic activity of the compounds of this invention were confirmed in a standard pharmacological test procedure which measures the inhibition of U87MG human glioblastoma cell growth (as a function of ^3H-thymidine incorporation), using 7-desmethylrapamycin 42-ester with 3-hydroxy-2-(hydroxymethyl)-2-methylpropionic acid (Compound I) as are presentative compound of this invention. The following briefly describes the procedure used and results obtained. U87MG human glioblastoma cells (ATCC # HTB-14; available from the American Type Culture Collection; 10801 University Boulevard; Manassas, Va. 20110;), were grown in the following media.
# BRL Minimum Essential Medium with Earle Salts (500 mL)
# +5 mL BRL MEM Non-Essential Amino Acids (10 mM)
# +5 mL BRL Penicillin-Streptomycin (10000 u/mL, 10000 μg/mL)
# +5 mL BRL Na Pyruvate Solution (100 mM)
# +5 mL BRL L-Glutamine 200 mM
# +50 mL BRL Fetal Bovine Serum (Qualified)
# 1. Cells were trypsinized and plated at a concentration of 10^4 cells/well in a final volume of 200 μL growth medium in 96-well flat bottom plates and allowed to adhere for 24 hours at 37° C.
# 2. The media was removed by aspiration with care to not disturb the cell monolayer. 200 μL of fresh growth media was added per well, allowing enough wells for samples to be run in triplicate. […]
# 4. […] Mats were counted in a Wallac Betaplate counter.
# [2] = Candida tropicalis strain 94-13
# [3] = Candida tropicalis strain 94-14
# [4] = Candida albicans strain ATCC 90028
# [5] = Candida parapsilosis strain 94-8
# [6] = Candida parapsilosis strain 94-9
# [7] = Candida parapsilosis strain ATCC 90018
Structure (SMILES),ANTIFUNGAL ACTIVITY (MIC) (Aspergillus fumigatus),ANTIFUNGAL ACTIVITY (MIC) (Candida lusitaniae),ANTIFUNGAL ACTIVITY (MIC) (Candida tropicalis; [2]),ANTIFUNGAL ACTIVITY (MIC) (Candida tropicalis; [3]),ANTIFUNGAL ACTIVITY (MIC) (Candida albicans; Candida albicans strain 1063),ANTIFUNGAL ACTIVITY (MIC) (Candida albicans; Candida albicans strain 1117),ANTIFUNGAL ACTIVITY (MIC) (Candida albicans; [4]),ANTIFUNGAL ACTIVITY (MIC) (Candida rugosa),ANTIFUNGAL ACTIVITY (MIC) (Candida krussii),ANTIFUNGAL ACTIVITY (MIC) (Candida parapsilosis; [5]),ANTIFUNGAL ACTIVITY (MIC) (Candida parapsilosis; [6]),ANTIFUNGAL ACTIVITY (MIC) (Candida parapsilosis; [7]),ANTIFUNGAL ACTIVITY (MIC) (Candida pseudotropicalis),ANTIFUNGAL ACTIVITY (MIC) (Aspergillus niger; Aspergillus niger strain S399),ANTIFUNGAL ACTIVITY (MIC) (Aspergillus niger; Aspergillus niger strain S430),IC50 [1]
C[C@@H]1[C@H](O)[C@@H](C)/C=C/C=C/CC/C=C/C=C/C=C/C=C/C(O[C@H]2O[C@H](C)[C@@H](O)[C@H](N)[C@@H]2O)CC2O[C@](O)(CC(O)C(O)CCC(O)CC(O)CC(O)CC(=O)O[C@H]1C)CC(O)C2C(=O)O (stereo partly shown) [Nystatin],2 µg/mL,1 µg/mL,1 µg/mL,1 µg/mL,1 µg/mL,1 µg/mL,1 µg/mL,1 µg/mL,1 µg/mL,2 µg/mL,1 µg/mL,2 µg/mL,1 µg/mL,2 µg/mL,1 µg/mL,
"C[C@@H]1[C@H](O)[C@@H](C)/C=C/C=C/C=C/C=C/C=C/C=C/C=C/[C@H](O[C@@H]2O[C@H](C)[C@@H](O)[C@H](N)[C@@H]2O)C[C@@H]2O[C@](O)(C[C@@H](O)C[C@@H](O)[C@H](O)CC[C@@H](O)C[C@@H](O)CC(=O)O[C@H]1C)C[C@H](O)[C@H]2C(=O)O [Amphotericin B, amphotericin B]",0.25 µg/mL,≦0.06 μg/mL,≦0.06 μg/mL,≦0.06 μg/mL,≦0.06 μg/mL,0.12 µg/mL,0.12 µg/mL,0.25 µg/mL,0.12 µg/mL,≦0.06 μg/mL,0.12 µg/mL,≦0.06 μg/mL,≦0.06 μg/mL,0.50 µg/mL,0.25 µg/mL,
"CO[C@@H]1C[C@H](C[C@@H](C)[C@@H]2CC(=O)[C@H](C)/C=C(\C)[C@@H](O)[C@@H](OC)C(=O)[C@H](C)C[C@H](C)/C=C/C=C/C=C(\C)[C@@H](O)C[C@@H]3CC[C@@H](C)[C@@](O)(O3)C(=O)C(=O)N3CCCC[C@H]3C(=O)O2)CC[C@H]1OC(=O)C(C)(CO)CO [Compound I, 7-Desmethylrapamycin 42-ester with 3-hydroxy-2-(hydroxymethyl)-2-methylpropionic acid]",64 µg/mL,1 µg/mL,1 µg/mL,1 µg/mL,1 µg/mL,4 µg/mL,1 µg/mL,2 µg/mL,0.5 µg/mL,2 µg/mL,4 µg/mL,2 µg/mL,2 µg/mL,64 µg/mL,64 µg/mL,0.0065 µg/mL
